Measurements from patent publication US7150974B1, “Parathyroid hormone receptor binding method” (The General Hospital Corporation, priority 1991, dated 2006).

Legend:
[1] = biological target: T1, rat bone PTH/PTHrP receptor (Rattus norvegicus, UniProt P25961, E586G); assay: Inositol phosphate metabolism, COS cells expressing R15B; type: cell-based; settings: FIG. 15
T1 construct: expressed in transfected cells; host or cells: COS / COS-7 cells, transient, plasmid R15B (pcDNA I)
T1 sequence (P25961 27-591 E586G): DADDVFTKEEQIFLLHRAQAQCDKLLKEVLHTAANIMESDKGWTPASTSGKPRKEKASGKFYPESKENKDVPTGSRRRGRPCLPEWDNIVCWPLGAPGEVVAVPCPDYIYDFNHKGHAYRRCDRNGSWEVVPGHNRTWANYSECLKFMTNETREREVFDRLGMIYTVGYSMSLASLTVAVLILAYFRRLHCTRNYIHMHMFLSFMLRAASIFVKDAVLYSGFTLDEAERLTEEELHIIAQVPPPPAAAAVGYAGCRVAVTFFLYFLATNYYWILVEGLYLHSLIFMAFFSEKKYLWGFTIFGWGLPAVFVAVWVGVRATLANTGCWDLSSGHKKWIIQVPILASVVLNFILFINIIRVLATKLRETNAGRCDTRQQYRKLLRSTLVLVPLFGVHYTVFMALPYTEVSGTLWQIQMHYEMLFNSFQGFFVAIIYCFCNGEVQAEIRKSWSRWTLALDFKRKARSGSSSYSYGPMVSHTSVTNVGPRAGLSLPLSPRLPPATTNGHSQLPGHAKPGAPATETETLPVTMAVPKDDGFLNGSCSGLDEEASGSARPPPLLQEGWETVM

[2] = biological target: T2, opossum kidney PTH/PTHrP receptor clone, OK-H (Didelphis virginiana, UniProt P25107, I132F/S86P); assay: Intracellular free calcium, COS cells expressing OK-H; type: cell-based; settings: FIG. 10, smaller extent, or not at all, compared with OK-O or R15B
T2 construct: expressed in transfected cells; host or cells: COS cells, transient, plasmid OK-H (pcDNA I)
Procedure: Measurements of intracellular calcium levels in cells transfected with PTH/PTHrP receptor cDNAs were performed using Fura-2 AM (acetomethoxy ester of Fura-2, Molecular Probes Inc., Eugene, Oreg.) loaded cells. Details of the methodology are:
Coverslips plated with COS cells were incubated in Fura-2 AM loading buffer containing, in mM: HEPES (N-[2-Hydroxyethyl]piperazine-N′-[2-ethanesulfonic acid]), 20; CaCl2, 1; KCl 5; NaCl, 145; MgSO4, 0.5; NaHCO3, 25; K2HPO4, 1.4; glucose, 10; and Fura-2 AM 91-(2-5′-carboxyoxazol-2′-yl)-6-aminobenzofuran-5oxy-(2′-amino-5′-methylphenoxy)ethane-N,N,N′,N′-tetraaecetic acid acetomethoxy ester), 0.5; at 37° C. at pH7.4, aerated with 95% air and 5% CO2 for 45 minutes. Cells loaded with Fura-2 AM were then washed with a modified Krebs-Heinseleit (KH) buffer containing, in mM: HEPES, 20; CaCl2, 1; KCl, 5; NaCl, 145; MgSO4, 0.5; Na2HPO4, 1; glucose, 5; pH7.4. To check that cleavage of the ester occurred, the excitation spectra after different times of Fura-2 AM incubation were measured. […]
To measure fluorescence of individual cells, the cover slips were placed in a microscope tissue chamber (Biophysica Technologies, Inc., MD). […] Fura-2 fluorescence was excited with a 75 watt Xenon arc lamp placed at the focal point of a condenser (Photon Technologies International (PTI) Inc., NJ). […]

T2 sequence (P25107 other isoform, or with tags, fused parts or gaps S86P/I132F): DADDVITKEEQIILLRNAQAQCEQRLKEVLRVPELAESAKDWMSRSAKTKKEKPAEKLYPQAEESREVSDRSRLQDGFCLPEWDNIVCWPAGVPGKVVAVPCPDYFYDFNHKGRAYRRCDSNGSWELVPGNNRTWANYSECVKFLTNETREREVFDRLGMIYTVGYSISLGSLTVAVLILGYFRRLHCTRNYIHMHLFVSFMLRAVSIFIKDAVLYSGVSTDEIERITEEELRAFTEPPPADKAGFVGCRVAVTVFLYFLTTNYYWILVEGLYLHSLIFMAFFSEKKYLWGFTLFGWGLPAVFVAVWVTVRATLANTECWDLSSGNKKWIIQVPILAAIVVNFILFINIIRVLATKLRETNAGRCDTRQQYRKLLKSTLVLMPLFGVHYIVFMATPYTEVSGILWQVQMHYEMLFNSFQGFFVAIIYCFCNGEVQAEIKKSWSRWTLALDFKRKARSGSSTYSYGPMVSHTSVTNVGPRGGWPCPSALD

## [Nle^8,18, Tyr^34]bPTH(1-34)amide
[1]
  inositol phosphate metabolism (IP3 and IP2 accumulation): rapid increase
[2]
  increase in concentration of intracellular free calcium (mean): 39 nM
